Reference: ChEMBL document CHEMBL5727484, “Compounds and methods for inhibiting NHE-mediated antiport in the treatment of disorders associated with fluid retention or salt overload and gastrointestinal tract disorders” (2020)

Assay: Cell-Based Assay of NHE-3 Activity: Rat NHE-3-mediated Na+-dependent H+ antiport was measured using a modification of the pH sensitive dye method originally reported by Tsien (Proc. Natl. Acad. Sci. USA. (1984) 81(23): 7436-7440). Opossum kidney (OK) cells were obtained from the ATCC and propagated per their instructions. The rat NHE-3 gene was introduced into OK cells via electroporation, seeded into 96 well plates and grown overnight. Medium was aspirated from the wells, cells were washed twice with NaCl-HEPES buffer (100 mM NaCl, 50 mM HEPES, 10 mM glucose, 5 mM KCl, 2 mM CaCl2, 1 mM MgCl2, pH 7.4), then incubated for 30 min at room temperature with NH4Cl-HEPES buffer (20 mM NH4Cl, 80 mM NaCl, 50 mM HEPES, 5 mM KCl, 2 mM CaCl2, 1 mM MgCl2, pH 7.4) containing 5 uM BCECF-AM (Invitrogen). Cells were washed twice with Ammonium free, Na+-free HEPES (100 mM choline, 50 mM HEPES, 10 mM glucose, 5 mM KCl, 2 mM CaCl2, 1 mM MgCl2, pH 7.4) and incubated in the same buffer for 10 minutes at room temperature to lower intracellular pH. […] Initial rates were plotted as the average 3-6 replicates, and pIC50 values were estimated using GraphPad Prism.

SMILES	IC50
O=C(CNCc1ccc(Cl)cc1Cl)c1cccc([N+](=O)[O-])c1	< 10 µM
CN1Cc2c(Cl)cc(Cl)cc2C(c2cccc(S(=O)(=O)NCCOCCOCCNC(=O)Nc3ccc(NC(=O)NCCOCCOCCNS(=O)(=O)c4cccc(C5CN(C)Cc6c(Cl)cc(Cl)cc65)c4)cc3)c2)C1 (stereo not given)	< 0.1 µM
CN1Cc2c(Cl)cc(Cl)cc2C(c2cccc(S(=O)(=O)NCCOCCOCCOCCNS(=O)(=O)c3cccc(S(=O)(=O)NCCOCCOCCOCCNS(=O)(=O)c4cccc(C5CN(C)Cc6c(Cl)cc(Cl)cc65)c4)c3)c2)C1 (stereo not given)	in the range around 3.16 µM
CN1Cc2c(Cl)cc(Cl)cc2[C@H](c2ccc(S(=O)(=O)NCCOCCOCCOCCNC(=O)NCCCCNC(=O)NCCOCCOCCOCCNS(=O)(=O)c3ccc([C@@H]4CN(C)Cc5c(Cl)cc(Cl)cc54)cc3)cc2)C1 (single isomer, unassigned)	< 0.1 µM
NC(N)=Nc1nc(-c2cccc(N3CCN(CCO)CC3)c2)c2cc(Cl)ccc2n1	in the range around 0.316 µM
NC(N)=Nc1nc(-c2ccc(N3CCN(CCO)CC3)cc2)c2cc(Cl)ccc2n1	in the range around 0.316 µM
CN1Cc2c(Cl)cc(Cl)cc2[C@H](c2cccc(S(=O)(=O)NCCOCCOCCNC(=O)Nc3ccc(NC(=O)NCCOCCOCCNS(=O)(=O)c4cccc([C@@H]5CN(C)Cc6c(Cl)cc(Cl)cc65)c4)cc3)c2)C1 (single isomer, unassigned)	< 0.1 µM
C/C(=C\c1cc(F)c(Oc2ccc(S(=O)(=O)NCCOCCOCCOCCNC(=O)CCCCCCC(=O)NCCOCCOCCOCCNS(=O)(=O)c3ccc(Oc4c(F)cc(/C=C(\C)C(=O)N=C(N)N)cc4F)cc3)cc2)c(F)c1)C(=O)N=C(N)N	< 0.1 µM
CN1Cc2c(Cl)cc(Cl)cc2C(c2cccc(S(=O)(=O)NCCOCCOCCOCCNC(=O)CN(CC(=O)NCCOCCOCCOCCNS(=O)(=O)c3cccc(C4CN(C)Cc5c(Cl)cc(Cl)cc54)c3)CC(=O)NCCOCCOCCOCCNS(=O)(=O)c3cccc(C4CN(C)Cc5c(Cl)cc(Cl)cc54)c3)c2)C1 (stereo not given)	in the range around 0.316 µM
CN1Cc2c(Cl)cc(Cl)cc2C(c2cccc(S(=O)(=O)NCCOCCOCCOCCNC(=O)[C@@H](O)[C@@H](O)C(=O)NCCOCCOCCOCCNS(=O)(=O)c3cccc(C4CN(C)Cc5c(Cl)cc(Cl)cc54)c3)c2)C1 (stereo not given in full)	< 0.1 µM
NCCCN1CCN(c2cccc(-c3nc(N=C(N)N)nc4ccc(Cl)cc34)c2)CC1	in the range around 0.316 µM
CN1Cc2c(Cl)cc(Cl)cc2C(c2cccc(S(=O)(=O)NCCOCCOCCOCCNC(=O)c3ccccc3C(=O)NCCOCCOCCOCCNS(=O)(=O)c3cccc(C4CN(C)Cc5c(Cl)cc(Cl)cc54)c3)c2)C1 (stereo not given)	< 0.1 µM
C/C(=C\c1cc(F)c(Oc2ccc(S(=O)(=O)NCCOCCOCCOCCN)cc2)c(F)c1)C(=O)N=C(N)N	in the range around 0.316 µM
CN1Cc2c(Cl)cc(Cl)cc2C(c2cccc(S(=O)(=O)NCCOCCOCCNC(=O)[C@H](O)[C@@H](O)C(=O)NCCOCCOCCNS(=O)(=O)c3cccc(C4CN(C)Cc5c(Cl)cc(Cl)cc54)c3)c2)C1 (stereo not given in full)	in the range around 0.316 µM
CN1Cc2c(Cl)cc(Cl)cc2C(c2cccc(S(=O)(=O)NCCOCCOCCOCCNC(=O)CCCCCCC(=O)NCCOCCOCCOCCNS(=O)(=O)c3cccc(C4CN(C)Cc5c(Cl)cc(Cl)cc54)c3)c2)C1 (stereo not given)	in the range around 0.316 µM
CN1Cc2c(Cl)cc(Cl)cc2C(c2cccc(S(=O)(=O)NCCOCCOCCOCCNC(=O)c3cc(C(=O)NCCOCCOCCOCCNS(=O)(=O)c4cccc(C5CN(C)Cc6c(Cl)cc(Cl)cc65)c4)cc(C(=O)NCCOCCOCCOCCNS(=O)(=O)c4cccc(C5CN(C)Cc6c(Cl)cc(Cl)cc65)c4)c3)c2)C1 (stereo not given)	< 0.1 µM
CN1Cc2c(Cl)cc(Cl)cc2C(c2cccc(S(=O)(=O)NCCOCCOCCNC(=O)C(C)(C)C(=O)NCCOCCOCCNS(=O)(=O)c3cccc(C4CN(C)Cc5c(Cl)cc(Cl)cc54)c3)c2)C1 (stereo not given)	in the range around 3.16 µM
CN1Cc2c(Cl)cc(Cl)cc2[C@H](c2ccc(S(=O)(=O)NCCOCCOCCNC(=O)COCC(=O)NCCOCCOCCNS(=O)(=O)c3ccc([C@@H]4CN(C)Cc5c(Cl)cc(Cl)cc54)cc3)cc2)C1 (single isomer, unassigned)	< 0.1 µM
CN1Cc2c(Cl)cc(Cl)cc2C(c2cccc(S(=O)(=O)NCCOCCOCCNC(=O)CCC(=O)NCCOCCOCCNS(=O)(=O)c3cccc(C4CN(C)Cc5c(Cl)cc(Cl)cc54)c3)c2)C1 (stereo not given)	< 0.1 µM
N=C(N)N1CCN(c2ccc(-c3nc(N=C(N)N)nc4ccc(Cl)cc34)cc2)CC1	in the range around 0.316 µM
CN1Cc2c(Cl)cc(Cl)cc2C(c2cccc(S(=O)(=O)NCCOCCOCCNC(=O)NCCOCCOCCNS(=O)(=O)c3cccc(C4CN(C)Cc5c(Cl)cc(Cl)cc54)c3)c2)C1 (stereo not given)	< 10 µM
CN1Cc2c(Cl)cc(Cl)cc2C(c2cccc(S(=O)(=O)NCCOCCOCCOCCNC(=O)c3ccc(C(=O)NCCOCCOCCOCCNS(=O)(=O)c4cccc(C5CN(C)Cc6c(Cl)cc(Cl)cc65)c4)cc3)c2)C1 (stereo not given)	< 0.1 µM
CN1Cc2c(Cl)cc(Cl)cc2C(c2ccc(S(=O)(=O)NCCOCCOCCNC(=O)NCCOCCOCCNS(=O)(=O)c3ccc(C4CN(C)Cc5c(Cl)cc(Cl)cc54)cc3)cc2)C1 (stereo not given)	< 10 µM

SMILES	IC50
CN1Cc2c(Cl)cc(Cl)cc2C(c2ccc(S(=O)(=O)NCCOCCOCCNC(=O)[C@H](O)[C@@H](O)C(=O)NCCOCCOCCNS(=O)(=O)c3ccc(C4CN(C)Cc5c(Cl)cc(Cl)cc54)cc3)cc2)C1 (stereo not given in full)	in the range around 0.316 µM
CN1Cc2c(Cl)cc(Cl)cc2C(c2cccc(S(=O)(=O)NCCOCCOCCNC(=O)c3ccc(C(=O)NCCOCCOCCNS(=O)(=O)c4cccc(C5CN(C)Cc6c(Cl)cc(Cl)cc65)c4)cc3)c2)C1 (stereo not given)	in the range around 3.16 µM
CN1Cc2c(Cl)cc(Cl)cc2C(c2cccc(S(=O)(=O)NCCOCCOCCOCCNC(=O)[C@@H](O)[C@H](O)C(=O)NCCOCCOCCOCCNS(=O)(=O)c3cccc(C4CN(C)Cc5c(Cl)cc(Cl)cc54)c3)c2)C1 (stereo not given in full)	< 0.1 µM
CN1Cc2c(Cl)cc(Cl)cc2C(c2ccc(S(=O)(=O)NCCOCCOCCOCCNC(=O)c3ccc(C(=O)NCCOCCOCCOCCNS(=O)(=O)c4ccc(C5CN(C)Cc6c(Cl)cc(Cl)cc65)cc4)cc3)cc2)C1 (stereo not given)	< 10 µM
CN1Cc2c(Cl)cc(Cl)cc2C(c2ccc(NS(=O)(=O)NCCP(=O)(O)O)cc2)C1 (stereo not given)	in the range around 3.16 µM
C/C(=C\c1cc(F)c(Oc2ccc(S(=O)(=O)NCCOCCOCCOCCOCCOCCOCCN)cc2)c(F)c1)C(=O)N=C(N)N	in the range around 0.316 µM
CN1Cc2c(Cl)cc(Cl)cc2C(c2cccc(S(=O)(=O)NCCOCCOCCNC(=O)NCCCCNC(=O)NCCOCCOCCNS(=O)(=O)c3cccc(C4CN(C)Cc5c(Cl)cc(Cl)cc54)c3)c2)C1 (stereo not given)	< 0.1 µM
CN1Cc2c(Cl)cc(Cl)cc2C(c2cccc(S(=O)(=O)NCCOCCOCCOCCOCCOCCOCCOCCOCCOCCOCCNC(=O)CCOCCOCCOCCOCCOCCOCCOCCOCCOCCC(=O)NCCOCCOCCOCCOCCOCCOCCOCCOCCOCCOCCNS(=O)(=O)c3cccc(C4CN(C)Cc5c(Cl)cc(Cl)cc54)c3)c2)C1 (stereo not given)	in the range around 0.316 µM
C/C(=C\c1cc(F)c(Oc2ccc(S(=O)(=O)NCCCP(=O)(O)O)cc2)c(F)c1)C(=O)N=C(N)N	in the range around 3.16 µM
CN1Cc2c(Cl)cc(Cl)cc2C(c2ccc(S(=O)(=O)NCCOCCOCCOCCNC(=O)NCCOCCOCCOCCNS(=O)(=O)c3ccc(C4CN(C)Cc5c(Cl)cc(Cl)cc54)cc3)cc2)C1 (stereo not given)	< 0.1 µM
CN1Cc2c(Cl)cc(Cl)cc2C(c2cccc(S(=O)(=O)NCCOCCOCCOCCNC(=O)Nc3ccc(NC(=O)NCCOCCOCCOCCNS(=O)(=O)c4cccc(C5CN(C)Cc6c(Cl)cc(Cl)cc65)c4)cc3)c2)C1 (stereo not given)	in the range around 3.16 µM
CN1Cc2c(Cl)cc(Cl)cc2C(c2cccc(S(=O)(=O)NCCOCCOCCOCCn3cc(COCc4cn(CCOCCOCCOCCNS(=O)(=O)c5cccc(C6CN(C)Cc7c(Cl)cc(Cl)cc76)c5)nn4)nn3)c2)C1 (stereo not given)	< 0.1 µM
CN1Cc2c(Cl)cc(Cl)cc2C(c2cccc(S(=O)(=O)NCCOCCOCCOCCNC(=O)NCCCCNC(=O)NCCOCCOCCOCCNS(=O)(=O)c3cccc(C4CN(C)Cc5c(Cl)cc(Cl)cc54)c3)c2)C1 (stereo not given)	< 0.1 µM
CN1Cc2c(Cl)cc(Cl)cc2C(c2cccc(S(=O)(=O)NCCOCCOCCOCCNC(=O)NCCOCCOCCOCCNS(=O)(=O)c3cccc(C4CN(C)Cc5c(Cl)cc(Cl)cc54)c3)c2)C1 (stereo not given)	in the range around 0.316 µM
CN1Cc2c(Cl)cc(Cl)cc2C(c2ccc(S(=O)(=O)NCCOCCOCCOCCNC(=O)C(O)C(O)C(=O)NCCOCCOCCOCCNS(=O)(=O)c3ccc(C4CN(C)Cc5c(Cl)cc(Cl)cc54)cc3)cc2)C1 (stereo not given)	< 0.1 µM
NC(N)=NCCCN1CCN(c2cccc(-c3nc(N=C(N)N)nc4ccc(Cl)cc34)c2)CC1	in the range around 0.316 µM
CN1Cc2c(Cl)cc(Cl)cc2C(c2cccc(S(=O)(=O)NCCOCCOCCNC(=O)COCC(=O)NCCOCCOCCNS(=O)(=O)c3cccc(C4CN(C)Cc5c(Cl)cc(Cl)cc54)c3)c2)C1 (stereo not given)	< 0.1 µM
CN1Cc2c(Cl)cc(Cl)cc2C(c2ccc(S(=O)(=O)NCCOCCOCCNC(=O)C(O)C(O)C(=O)NCCOCCOCCNS(=O)(=O)c3ccc(C4CN(C)Cc5c(Cl)cc(Cl)cc54)cc3)cc2)C1 (stereo not given)	< 0.1 µM
CN1Cc2c(Cl)cc(Cl)cc2C(c2ccc(S(=O)(=O)NCCOCCOCCNC(=O)c3ccc(C(=O)NCCOCCOCCNS(=O)(=O)c4ccc(C5CN(C)Cc6c(Cl)cc(Cl)cc65)cc4)cc3)cc2)C1 (stereo not given)	< 10 µM
CN1Cc2c(Cl)cc(Cl)cc2[C@H](c2ccc(S(=O)(=O)NCCOCCOCCOCCNC(=O)NCCOCCOCCOCCNS(=O)(=O)c3ccc([C@@H]4CN(C)Cc5c(Cl)cc(Cl)cc54)cc3)cc2)C1 (single isomer, unassigned)	< 0.1 µM
CN1Cc2c(Cl)cc(Cl)cc2C(c2cccc(S(=O)(=O)NCCOCCOCCOCCNC(=O)c3cccc(C(=O)NCCOCCOCCOCCNS(=O)(=O)c4cccc(C5CN(C)Cc6c(Cl)cc(Cl)cc65)c4)c3)c2)C1 (stereo not given)	in the range around 0.316 µM
CN1Cc2c(Cl)cc(Cl)cc2C(c2cccc(S(=O)(=O)NCCOCCOCCOCCNC(=O)C(O)C(O)C(=O)NCCOCCOCCOCCNS(=O)(=O)c3cccc(C4CN(C)Cc5c(Cl)cc(Cl)cc54)c3)c2)C1 (stereo not given)	< 0.1 µM
